The values that follow come from ChEMBL document CHEMBL1201862, “PubChem BioAssay data set” (2004).

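Briefly, cells in 96-well plates were exposed to five compound concentrations for 48 h, and endpoints were estimated by linear interpolation. GI50 = concentration required for 50% inhibition of growth.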 Active and inactive are the calls of the source. No stated cut-off is given here; in the data, active = GI50 up to about 1.1 µM and inactive = higher.

Test systems include OVCAR-3; BT-549; K562; SW-620; DU-145; SK-MEL-5; MDA-MB-435; ACHN; NCI-H522; IGROV-1; MDA-N; SF-268; U-251; Hs-578T; A498; HT-29; HOP-92; MOLT-4; RPMI-8226; KM-20L2.
Test in all cases: NCI tumour cell line growth inhibition, 48 h

As to `CC(C(=O)[O-])S(=O)(=O)O.CCc1c2cc(OC)c(OC)cc2cc2c3cc(OC)c(OC)cc3cc[n+]12`, the GI50 is 12.4 µM (inactive) in the test on OVCAR-3; 3.81 µM (inactive) in the test on BT-549; 7.57 µM (inactive) with K562; 26.5 µM (inactive) in the test with SW-620; 14.2 µM (inactive) with DU-145; 15.3 µM (inactive) with SK-MEL-5. Besides, the GI50 is 4.27 µM (inactive) with MDA-MB-435; 58.9 µM (inactive) in the test on ACHN; 3.09 µM (inactive) in the test with NCI-H522; 41.5 µM (inactive) with IGROV-1; 9.89 µM (inactive) with MDA-N; 1.11 µM (active) with SF-268. Also, the GI50 is 6.27 µM (inactive) in the test on U-251; 4.81 µM (inactive) in the test with Hs-578T; 53.1 µM (inactive) in the test on A498; 45.2 µM (inactive) in the test on HT-29; 29 µM (inactive) with HOP-92; 20.4 µM (inactive) with MOLT-4. The results for the GI50 with RPMI-8226 and in the test with KM-20L2 were 25.8 µM (inactive) and > 100 µM (inactive), respectively.
For the compound `COc1ccc(-c2cc(=O)c3ccccc3o2)cc1N`, the GI50 was 31.8 µM (inactive) in the test with OVCAR-3; 12.2 µM (inactive) in the test with K562; 38.4 µM (inactive) in the test with SW-620; 25.8 µM (inactive) in the test on SK-MEL-5; 37.1 µM (inactive) in the test with ACHN; 20.5 µM (inactive) in the test on NCI-H522. In addition, the GI50 in the test on IGROV-1 was 55.5 µM (inactive); in the test on SF-268, 25.7 µM (inactive); with U-251, 69.3 µM (inactive); with A498, 37.4 µM (inactive); in the test with HT-29, 32.8 µM (inactive); in the test with HOP-92, 76.2 µM (inactive). Besides, the GI50 with MOLT-4 is 26.3 µM (inactive); with RPMI-8226, 44.8 µM (inactive); with KM-20L2, 34.1 µM (inactive).
